Assay results: US20230173059A1, “TOLL-LIKE RECEPTOR (TLR) AGONIST NANOPARTICLES AND USES THEREOF” (The Board of Trustees of the Leland Stanford Junior …, priority 2020, published 2023)
Several values for one entry are separate records, joined by “and”; a condition that tells them apart may be missing. Equal entries are not always repeated.

T1: TLR9 (Mus musculus, UniProt Q9EQU3)
T1 construct: host or cells: Raw-Blue (NF-kB-SEAP) mouse macrophage reporter cells
T1 sequence (Q9EQU3 26-1032): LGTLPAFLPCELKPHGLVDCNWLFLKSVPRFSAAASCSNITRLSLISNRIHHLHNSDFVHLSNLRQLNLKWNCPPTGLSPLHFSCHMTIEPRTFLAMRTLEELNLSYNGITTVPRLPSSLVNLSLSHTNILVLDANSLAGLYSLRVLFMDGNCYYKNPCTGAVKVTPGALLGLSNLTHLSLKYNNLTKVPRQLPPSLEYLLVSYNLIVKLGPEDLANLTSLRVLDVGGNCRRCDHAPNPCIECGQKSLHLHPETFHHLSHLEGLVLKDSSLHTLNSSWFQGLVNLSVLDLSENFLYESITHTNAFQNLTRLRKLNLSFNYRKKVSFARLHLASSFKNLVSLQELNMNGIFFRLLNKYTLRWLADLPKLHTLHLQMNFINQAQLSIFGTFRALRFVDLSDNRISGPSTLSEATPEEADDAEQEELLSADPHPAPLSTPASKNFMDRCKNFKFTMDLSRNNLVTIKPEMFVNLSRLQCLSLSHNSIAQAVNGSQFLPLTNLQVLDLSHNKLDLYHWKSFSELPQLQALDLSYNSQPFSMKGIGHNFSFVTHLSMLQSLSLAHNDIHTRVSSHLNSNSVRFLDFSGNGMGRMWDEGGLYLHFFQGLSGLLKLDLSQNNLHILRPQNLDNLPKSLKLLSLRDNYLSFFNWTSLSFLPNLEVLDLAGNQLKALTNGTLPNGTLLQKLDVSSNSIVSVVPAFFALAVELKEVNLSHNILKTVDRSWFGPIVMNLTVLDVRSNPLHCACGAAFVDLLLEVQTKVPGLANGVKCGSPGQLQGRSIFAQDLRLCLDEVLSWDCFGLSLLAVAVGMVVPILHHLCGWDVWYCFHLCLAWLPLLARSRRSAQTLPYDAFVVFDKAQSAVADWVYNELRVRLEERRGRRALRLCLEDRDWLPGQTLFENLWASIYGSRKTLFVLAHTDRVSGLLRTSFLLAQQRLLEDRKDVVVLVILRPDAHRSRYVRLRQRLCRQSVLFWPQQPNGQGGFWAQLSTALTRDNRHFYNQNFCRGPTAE

B1: ovalbumin (protein, UniProt P01012 2-386, looked up)
Ovalbumin: GSIGAASMEFCFDVFKELKVHHANENIFYCPIAIMSALAMVYLGAKDSTRTQINKVVRFDKLPGFGDSIEAQCGTSVNVHSSLRDILNQITKPNDVYSFSLASRLYAEERYPILPEYLQCVKELYRGGLEPINFQTAADQARELINSWVESQTNGIIRNVLQPSSVDSQTAMVLVNAIVFKGLWEKAFKDEDTQAMPFRVTEQESKPVQMMYQIGLFRVASMASEKMKILELPFASGTMSMLVLLPDEVSGLEQLESIINFEKLTEWTSSNVMEERKIKVYLPRMKMEEKYNLTSVLMAMGITDVFSSSANLSGISSAESLKISQAVHAAHAEINEAGREVVGSAEAGVDAASVSEEFRADHPFLFCIKHIATNAVLFFGRCVSP
notes: model antigen protein, MW=43 kDa

Assays:
[1] = biological target: T1, TLR9; assay: In vitro Raw-Blue reporter assay (CpG); assay type: cell-based; details: 100,000 Raw-Blue cells, 21 h, CpG-C 3.1-29 μg/mL, absorbance 655 nm
Method: In vitro Raw-Blue reporter assay. The Raw-Blue (NF-kB-SEAP) reporter cell line (Invivogen, raw-sp) was used to evaluate the valency effect of TLR9 agonist conjugated to PEG-PLA NPs. The cells were cultured at 37° C. with 5% CO2 in DMEM supplemented with L-glutamine (2 mM), D-glucose (4.5 g/L), 10% HI-FBS, and penicillin (100 U/mL)/streptonmcin (100 μg). Every other passage, zeocin (100 μg/mL) was added to the culture medium. Serial dilutions of soluble CpG-B and CpG-C and of the different CpG-B and CpG-C NPs formulations were added to a 96-well tissue culture treated plate to achieve final concentrations between 30 and 3.1 μg/mL of TLR9 agonist. Non-conjugated PEG-PLA NPs were used as a negative control. […] Manufacturer instructions were followed for SEAP quantification, and absorbance levels detected at 655 nm after 3 h incubation with QUANTI-Blue Solution (Invivogen). […]
In these assays, Raw-Blue cells were incubated for 21 h with either the free form, or the NPs tethered form (10%, 20%, 30%, 50%) of CpG-C at a range of CpG concentrations (3.1-29 μg/mL) in order to generate concentration dependent activation curves (FIG. 38B). […] To ensure a correct and consistent dosing of CpG NPs throughout different experiments, we constructed a standard curve for both classes of CpG-NPs (FIGS. 40A, 40B) by measuring the absorbance of different concentration of CpG at 280 nm. […]

[2] = system: SARS-CoV-2 spike protein; details: in vivo, sc
[3] = Cargo and polymer diffusivity (FRAP, Stokes-Einstein, MSDM); assay type: physicochemical; details: for Diffusivity in 1:5 gel / Diffusivity in 2:10 gel: FRAP; for Diffusivity in PBS: calculated with Stokes-Einstein from RH
Description: To characterize the dynamics of vaccine exposure expected from the vaccine-loaded gels, we assessed the diffusivities of both vaccine cargo in each of the two gel formulations of interest using fluorescence recovery after photobleaching (FRAP) experiments (FIG. 9F. FIG. 16). The PNP gels are unique compared to traditional covalently cross-linked gels as their bonds are dynamic and continuously rearrange^28. This feature results in self-diffusion of the polymer network over time within the intact hydrogel^40,41. OVA's hydrodynamic radius (RH) in PBS is reported in the literature to be 3.2 nm^42, corresponding to a diffusivity value, D, of 76.6 μm^2/s. Using multi-angle light scattering (MALS) we measured Poly(I:C)'s hydrodynamic radius to be much larger, with an RH of 34.2 nm, corresponding to a D value of 7.2 μm^2/s. This difference in hydrodynamic size results in OVA having more than a 10-fold greater diffusivity than Poly(I:C) in PBS (FIG. 9G) and a 100-fold difference in a typical covalently cross-linked hydrogel (FIG. 17). […] The measured diffusivities for all experiments can be found in Table 6.
FRAP Analysis: Alexa Fluor 647 conjugated OVA (Thermo Fisher Scientific), rhodamine conjugated Poly(I:C) (Invivogen), and rhodamine conjugated HPMC-C12 were used to visualize the diffusion of the cargo and gel. Samples were photobleached with a 50 μm diameter for the region of interest (ROI). Different tests (n=5) were made for 3 different samples from the same batch at different locations of the sample. A spot was bleached with a pixel dwell time of 177.32 μs. 500 post-bleach frames were recorded at 1 frame/s to form the recovery exponential curve. The diffusion coefficient was calculated as^52:
Where the constant γD=τ1/2τD, with τ1/2 being the half-time of the recovery. τD the characteristic diffusion time, both yielded by the ZEN software, and ω the radius of the bleached ROI (25 μm).
The diffusivity of cargo in PBS was calculated using the Stokes-Einstein Law Equation for diffusion^53 where kB is Boltzmann's constant, T is temperature in Kelvin, η is solvent viscosity, and R is solute hydrodynamic radius
The diffusivity of cargo in a model covalent PEG gel was calculated using the Multiscale Diffusion Model (MSDM) assuming 25° C., 5% volume fraction, and 35 nm mesh size^54.
FRAP Analysis: Alexa Fluor 647 conjugated OVA (Thermo Fisher Scientific), rhodamine conjugated Poly(I:C) (Invivogen), and rhodamine conjugated HPMC-C12 were used to visualize the diffusion of the cargo and gel. The samples were placed in a sterile 0.18 mm thick glass bottom dish (Ibidi). An Inverted Zeiss LSM 780 Laser Scanning Confocal Microscope (Germany) using a Plan-Apochromat 20×/0.8 M27 objective lens was used for FRAP measurements. To excite the fluorescent Alexa Fluor 647, a 5 mW 633 nm He—Ne laser was employed at 2%, and the emitted fluorescence was detected by Alexa Fluor 647 specific band pass filter (638-756 nm). To excite the fluorescent rhodamine, a 20 mW 561 nm diode pumped solid state laser was used at 2%, and the emitted fluorescence was detected by rhodamine specific band pass filter (415-638 nm). We used pixel dwell time 2.55 μs which took 390.98 ms to finish every scan. Samples were photobleached with a 405 nm diode laser, plus the 633 nm laser in the case of the Alexa Fluor, and a 514 nm argon laser and the 561 nm laser in the case of the rhodamine. All lasers were set al 100% intensity for the bleaching, with a 20-40 μm diameter for the region of interest (ROI). To avoid any extra noise, the high voltage was limited to be 700 V. Different tests (n=5) were made for 3 different samples from the same batch at different locations of the sample. For each test, 10 control pre-bleach images were captured at 1 frame/s. A spot was bleached with a pixel dwell time of 177.32 μs. 500 post-bleach frames were recorded at 1 frame/s to form the recovery exponential curve. The pixel size was set to be 1.66 μm. The diffusion coefficient was calculated as^62: […]

[4] = reported in the literature; cited from earlier work

Molecule	log EC50 [1]	anti-spike total IgG endpoint titers [2]	Diffusivity in 1:5 gel [3]	Diffusivity in 2:10 gel [3]	Diffusivity in PBS [3]	hydrodynamic radius (RH) ([3]; multi-angle light scattering (MALS))	hydrodynamic radius (RH) in PBS [4]
CpG-C 2395 (DNA TCGTCGTTTTCGGCGCGCGCCG; chemistry not given here) [free CpG-C]	1.15 log10(μg/mL)	–	–	–	–	–	–
CpG-B 1826 [soluble CpG-B]	–	stronger response than the CpG-B NP	–	–	–	–	–
Poly(I:C)	–	–	1.7 ± 0.3 μm^2/s	2.4 ± 0.1 μm^2/s	7.2 μm^2/s	34.2 nm	–
B1	–	–	5.76 μm^2/s and 6 ± 1 μm^2/s	3.2 μm^2/s and 3.2 ± 0.6 μm^2/s	76.6 μm^2/s	–	3.2 nm
